The numbers were not newly measured in US9662322B2 (TEVA PHARMACEUTICAL INDUSTRIES, LTD., priority 2014, dated 2017), which cites them from elsewhere.

Structures are written as SMILES.

For this data set the following is noted: cited from earlier work.

Turning to `CCN(C(=O)c1c(O)c2c(Cl)cccc2n(C)c1=O)c1ccccc1` [Laquinimod sodium], the Oral bioavailability result is reported as “high”.
